Laboratory results: ChEMBL document CHEMBL5233278, “Recent Advances in the Medicinal Chemistry of Farnesoid X Receptor” (J Med Chem, 2021)
Each block holds one compound with its values, some of them ahead of it.

What was measured:
[1] = target: T1, Bile acid receptor (Homo sapiens, UniProt Q96RI1); test: Agonist activity at human FXR
T1 sequence (Q96RI1 whole entry): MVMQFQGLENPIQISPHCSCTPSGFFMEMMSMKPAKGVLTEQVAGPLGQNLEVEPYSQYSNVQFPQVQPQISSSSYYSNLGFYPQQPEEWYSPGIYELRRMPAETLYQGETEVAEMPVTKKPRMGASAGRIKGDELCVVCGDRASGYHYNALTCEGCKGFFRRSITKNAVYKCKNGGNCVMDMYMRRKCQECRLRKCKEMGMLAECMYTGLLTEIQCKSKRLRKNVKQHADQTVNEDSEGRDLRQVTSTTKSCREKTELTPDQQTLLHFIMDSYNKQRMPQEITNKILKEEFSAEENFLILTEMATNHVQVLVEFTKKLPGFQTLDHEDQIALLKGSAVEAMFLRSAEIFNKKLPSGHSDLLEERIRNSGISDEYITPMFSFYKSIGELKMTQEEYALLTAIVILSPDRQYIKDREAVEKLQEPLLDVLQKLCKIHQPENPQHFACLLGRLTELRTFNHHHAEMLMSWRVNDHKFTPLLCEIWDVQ

[2] = target: T1, Bile acid receptor; test: Agonist activity at FXR (unknown origin)
[3] = target: Bile acid receptor (Homo sapiens) (UniProt Q96RI1); test: Agonist activity at FXR in human HepG2 cells at 3 uM relative to control; conditions: filed as agonist
[4] = target: Bile acid receptor (Homo sapiens) (UniProt Q96RI1); test: Agonist activity at FXR in human HepG2 cells coexpressing BSEP at 0.3 uM relative to control; conditions: filed as agonist
[5] = target: T1, Bile acid receptor; test: Agonist activity at FXR in HEK293T cells by steady-glo luciferase assay; type: cell-based
[6] = target: T1, Bile acid receptor; test: Agonist activity at FXR (unknown origin) incubated for 180 mins by TR-FRET assay
[7] = target: T2, Bifunctional epoxide hydrolase 2 (Homo sapiens, UniProt P34913); test: Inhibition of sEH (unknown origin)
T2 sequence (P34913 whole entry): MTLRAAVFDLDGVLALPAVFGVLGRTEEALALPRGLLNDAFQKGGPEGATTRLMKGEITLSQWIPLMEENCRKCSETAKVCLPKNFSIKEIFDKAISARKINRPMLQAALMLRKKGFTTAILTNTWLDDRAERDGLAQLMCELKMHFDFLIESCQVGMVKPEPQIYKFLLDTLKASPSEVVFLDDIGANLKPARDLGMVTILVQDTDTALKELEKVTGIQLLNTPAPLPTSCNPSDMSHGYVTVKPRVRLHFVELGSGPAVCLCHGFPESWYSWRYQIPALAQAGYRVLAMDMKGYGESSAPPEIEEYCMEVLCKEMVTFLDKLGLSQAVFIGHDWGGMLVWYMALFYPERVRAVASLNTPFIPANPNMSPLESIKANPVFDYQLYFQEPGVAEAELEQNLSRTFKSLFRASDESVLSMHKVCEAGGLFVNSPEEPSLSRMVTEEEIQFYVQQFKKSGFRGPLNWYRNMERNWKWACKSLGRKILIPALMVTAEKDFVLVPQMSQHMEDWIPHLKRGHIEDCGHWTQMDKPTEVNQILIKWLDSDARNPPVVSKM

[8] = target: T1, Bile acid receptor; test: Agonist activity at FXR in human HeLa cells incubated for 24 hrs by Dual-Glo luciferase assay; type: cell-based; conditions: hela
[9] = target: T1, Bile acid receptor; test: Agonist activity at FXR in HEK293T cells incubated for 24 hrs by Steady-Glo luciferase assay; type: cell-based
[10] = target: T1, Bile acid receptor; test: Agonist activity at human FXR incubated for 24 hrs by luciferase reporter assay
[11] = target: Voltage-gated inwardly rectifying potassium channel KCNH2 (Homo sapiens, UniProt Q12809); test: Inhibition of hERG; type: toxicity
Sequence of Voltage-gated inwardly rectifying potassium channel KCNH2 (Q12809 whole entry): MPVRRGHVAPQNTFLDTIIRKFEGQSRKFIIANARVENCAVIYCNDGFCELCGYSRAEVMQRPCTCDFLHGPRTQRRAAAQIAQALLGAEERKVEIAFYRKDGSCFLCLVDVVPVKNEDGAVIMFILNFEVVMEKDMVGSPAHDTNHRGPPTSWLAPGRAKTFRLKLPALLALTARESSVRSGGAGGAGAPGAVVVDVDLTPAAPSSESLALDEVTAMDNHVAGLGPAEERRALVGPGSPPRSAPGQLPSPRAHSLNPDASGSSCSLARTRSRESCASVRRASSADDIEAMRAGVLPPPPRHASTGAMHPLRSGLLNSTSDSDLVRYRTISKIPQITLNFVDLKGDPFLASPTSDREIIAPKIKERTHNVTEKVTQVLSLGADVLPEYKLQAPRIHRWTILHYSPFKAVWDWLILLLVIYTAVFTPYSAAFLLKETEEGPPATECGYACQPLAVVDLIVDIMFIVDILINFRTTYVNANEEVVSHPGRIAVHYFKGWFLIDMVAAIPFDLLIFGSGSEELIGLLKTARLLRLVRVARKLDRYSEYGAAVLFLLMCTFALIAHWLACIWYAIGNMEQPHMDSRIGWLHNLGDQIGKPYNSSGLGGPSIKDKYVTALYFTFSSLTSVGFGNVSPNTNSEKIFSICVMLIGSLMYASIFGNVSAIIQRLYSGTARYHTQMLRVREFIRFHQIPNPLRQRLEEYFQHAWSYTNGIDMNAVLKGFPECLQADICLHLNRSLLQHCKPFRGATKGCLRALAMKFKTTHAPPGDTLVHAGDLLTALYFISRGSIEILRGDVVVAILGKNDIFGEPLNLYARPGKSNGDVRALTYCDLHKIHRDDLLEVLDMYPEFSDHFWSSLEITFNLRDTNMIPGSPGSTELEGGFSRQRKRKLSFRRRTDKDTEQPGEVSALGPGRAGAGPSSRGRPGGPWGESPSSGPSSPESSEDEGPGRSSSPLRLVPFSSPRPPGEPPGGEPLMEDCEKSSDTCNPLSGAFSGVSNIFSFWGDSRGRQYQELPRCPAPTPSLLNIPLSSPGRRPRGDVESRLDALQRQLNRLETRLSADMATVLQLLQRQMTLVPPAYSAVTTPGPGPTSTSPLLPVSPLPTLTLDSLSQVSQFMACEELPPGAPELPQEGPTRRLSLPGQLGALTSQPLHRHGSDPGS

[12] = system: Mus musculus; test: Anti-NASH activity in nonalcoholic steatohepatitis C57BL/6 mouse model assessed as decrease in level of serum ALT 10 mg/kg, iv relative to control; type: functional; design: scale not given: the % may be the effect or the level left
[13] = system: Mus musculus; test: Anti-NASH activity in nonalcoholic steatohepatitis C57BL/6 mouse model assessed as decrease in level of serum AST 10 mg/kg, iv relative to control; type: functional; design: scale not given: the % may be the effect or the level left
[14] = target: T3, Bile acid receptor (Homo sapiens) (UniProt Q96RI1); test: Agonist activity at human FXR expressed in CHO cells assessed as maximum efficacy incubated for 22 hrs by luciferase reporter assay relative to control; type: cell-based
T3 sequence (whole entry): T1 sequence (Q96RI1 whole entry)

Compound: O=C(O)c1ccc2nc(N3CCC(OCc4c(-c5c(Cl)cccc5Cl)noc4C4CC4)C4CC43)sc2c1 (configuration not stated)
- Activity [3]: 125%
- Activity [4]: 64%

Compound: O=C(O)c1ccc(-c2nc(N3[C@@H]4CC[C@H]3C[C@@H](OCc3c(-c5c(Cl)cccc5Cl)noc3C3CC3)C4)no2)cc1
- EC50 [2]: < 50 nM

Compound: O=C(O)c1ccc(-c2nc(N3[C@@H]4CC[C@H]3C[C@@H](OCc3c(-c5c(Cl)cccc5Cl)noc3C3CC3)C4)no2)cc1F
- EC50 [2]: < 50 nM

Compound: CS(=O)(=O)NC(=O)c1ccc(N2CCC3(CC2)CC(OCc2c(-c4ccccc4OC(F)(F)F)noc2C2CC2)CO3)nc1 (configuration not stated)
- EC50 [6]: 26.9 nM

Compound: CC(C)(C)c1ccc(C(=O)Nc2ccc3ccn(Cc4ccc(C(=O)O)cc4)c3c2)cc1
- IC50 [7]: 2900 nM
- EC50 [8]: 3500 nM

Compound: COc1cc(C(=O)O)ccc1Cn1ccc2ccc(NC(=O)c3ccc(C(C)(C)C)cc3)cc21
- IC50 [7]: 1700 nM
- EC50 [8]: 260 nM

Compound: CC[C@H]1[C@@H](O)[C@@H]2[C@H](CC[C@]3(C)[C@@H]([C@H](C)CCNC(=O)NS(=O)(=O)c4ccc(C(C)(C)C)cc4)CC[C@@H]23)[C@@]2(C)CC[C@@H](O)[C@H](F)[C@@H]12
- EC50 [10]: 19 nM

Compound: O=C(O)CNC(=O)c1ccc(N2CCC3(CC2)CC(OCc2c(-c4ccccc4OC(F)(F)F)noc2C2CC2)CO3)nc1 (configuration not stated)
- EC50 [6]: 1.7 nM

Compound: Cc1cc(OCc2c(-c3c(Cl)cccc3Cl)noc2C2CC2)ccc1C1=NOC(c2cc(C(=O)O)ccn2)C1 (configuration not stated)
- IC50 [11]: > 30000 nM

Compound: O=S(O)c1cc(F)c2nc(N3[C@@H]4CC[C@H]3C[C@@H](OCc3c(-c5ccccc5OC(F)(F)F)noc3C3CC3)C4)sc2c1
- EC50 [5]: < 500 nM

Compound: Cc1cc(OCc2c(-c3c(Cl)cccc3Cl)noc2C2CC2)ccc1C1=NOC(c2cccc(C(=O)O)c2)C1 (configuration not stated)
- IC50 [11]: > 30000 nM

Compound: CC(C)n1ncc(-c2c(Cl)cccc2Cl)c1COc1ccc(N(C)Cc2cccc(C(=O)O)c2)c(C(F)(F)F)c1
- Activity [12]: 63%
- Activity [13]: 59%

Continued, in another order:

- EC50 [1]: < 30 nM
Compound: CC(C)Oc1cc(C(=O)O)cc2sc(O[C@@H]3CO[C@H]4[C@@H]3OC[C@H]4OCc3c(-c4ccccc4OC(F)(F)F)noc3C3CC3)nc12

- EC50 [2]: < 50 nM
Compound: Cc1cc(NS(=O)(=O)N2[C@@H]3CC[C@H]2C[C@@H](OCc2c(-c4c(Cl)cccc4Cl)noc2C2CC2)C3)ccc1C(=O)O

- Activity [3]: 125%
Compound: O=C(O)c1cc(F)c2nc(N3C[C@@H]4CC[C@H]3C[C@@H]4OCc3c(-c4ccccc4OC(F)(F)F)noc3C3CC3)sc2c1
- Activity [4]: 84%

- EC50 [2]: 7.7 nM
Compound: O=C(O)c1cc(F)c2nc(N3[C@@H]4CC[C@H]3C[C@@H](OCc3c(-c5c(Cl)cccc5Cl)noc3C3CC3)C4)sc2c1

- EC50 [5]: 10 nM
Compound: O=C(O)c1ccc2c(c1)CN(C(=O)N1[C@@H]3CC[C@H]1C[C@@H](OCc1c(-c4c(Cl)cccc4Cl)noc1C1CC1)C3)C2

- EC50 [2]: 450 nM
Compound: COc1cccc(-c2ccc(NC(=O)C3=C(C(=O)O)CCC3)c(F)c2)c1 [VIDOFLUDIMUS]

- EC50 [9]: 205 nM
Compound: CC(C)COc1ccc(-c2nnc(-c3ccc(C(=O)O)cc3)o2)cc1

- Activity [3]: 185%
Compound: O=C(O)c1ccc2nc(N3C[C@@H]4C[C@H]3C[C@H]4OCc3c(-c4c(Cl)cccc4Cl)noc3C3CC3)sc2c1
- Activity [4]: 166%

- Emax [14]: 28%
Compound: COc1cc(Cl)cc(N(CC23CCC(c4ccc(OC)c(C#N)c4)(CC2)CC3)C(=O)c2ccncc2C)c1
